Reference: PubChem BioAssay (NCI)
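How tested: cells in 96-well plates exposed to compound for 48 hours at five concentrations. Abbreviation: GI50, concentration required for 50% inhibition of growth. TGI denotes the concentration required for complete inhibition of growth.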

Key:
Assay in all cases: inhibition of tumour cell growth, NCI panel, 48 h
OVCAR-8 ovarian = test system: OVCAR-8 ovarian
SK-MEL-28 melanoma = test system: SK-MEL-28 melanoma
MCF7 breast = test system: MCF7 breast
HS 578T breast = test system: HS 578T breast
M14 melanoma = test system: M14 melanoma
MDA-MB-435 = test system: MDA-MB-435
NCI-H460 lung = test system: NCI-H460 lung
UACC-62 melanoma = test system: UACC-62 melanoma
HCT-116 colon = test system: HCT-116 colon
UACC-257 melanoma = test system: UACC-257 melanoma
SK-MEL-2 melanoma = test system: SK-MEL-2 melanoma
HCC-2998 colon = test system: HCC-2998 colon
SR leukemia = test system: SR leukemia
UO-31 renal = test system: UO-31 renal
MDA-MB-231 breast = test system: MDA-MB-231 breast
SK-MEL-5 melanoma = test system: SK-MEL-5 melanoma
SF-268 CNS = test system: SF-268 CNS
HL-60(TB) leukemia = test system: HL-60(TB) leukemia
OVCAR-4 ovarian = test system: OVCAR-4 ovarian
786-0 renal = test system: 786-0 renal
NCI-H522 lung = test system: NCI-H522 lung
MDA-MB-468 breast = test system: MDA-MB-468 breast
NCI-H23 lung = test system: NCI-H23 lung
MALME-3M melanoma = test system: MALME-3M melanoma
CAKI-1 renal = test system: CAKI-1 renal
NCI-H226 lung = test system: NCI-H226 lung
HOP-62 NSCLC = test system: HOP-62 NSCLC
IGROV1 ovarian = test system: IGROV1 ovarian
SNB-19 CNS = test system: SNB-19 CNS
RPMI-8226 leukemia = test system: RPMI-8226 leukemia
NCI/ADR-RES ovarian = test system: NCI/ADR-RES ovarian
OVCAR-5 ovarian = test system: OVCAR-5 ovarian
KM12 colon = test system: KM12 colon
A549 NSCLC = test system: A549 NSCLC
LOX IMVI melanoma = test system: LOX IMVI melanoma
U251 CNS = test system: U251 CNS
PC-3 prostate = test system: PC-3 prostate
DU-145 prostate = test system: DU-145 prostate
HCT-15 colon = test system: HCT-15 colon
TK-10 renal = test system: TK-10 renal
SF-539 CNS = test system: SF-539 CNS
COLO 205 colon = test system: COLO 205 colon
EKVX NSCLC = test system: EKVX NSCLC
A498 renal = test system: A498 renal
SF-295 CNS = test system: SF-295 CNS
K-562 leukemia = test system: K-562 leukemia
BT-549 breast = test system: BT-549 breast
SW-620 colon = test system: SW-620 colon
OVCAR-3 ovarian = test system: OVCAR-3 ovarian
CCRF-CEM leukemia = test system: CCRF-CEM leukemia
SK-OV-3 ovarian = test system: SK-OV-3 ovarian
T-47D breast = test system: T-47D breast
SN12C renal = test system: SN12C renal
HT29 colon = test system: HT29 colon
RXF 393 renal = test system: RXF 393 renal
ACHN renal = test system: ACHN renal
MOLT-4 leukemia = test system: MOLT-4 leukemia
HOP-92 NSCLC = test system: HOP-92 NSCLC

COc1ccc(C(=O)/C=C/c2c(F)cccc2Cl)cc1S(N)(=O)=O
GI50 (OVCAR-8 ovarian): 3.01 µM | TGI (OVCAR-8 ovarian): 12.3 µM | GI50 (SK-MEL-28 melanoma): 3.6 µM | TGI (SK-MEL-28 melanoma): 14 µM | GI50 (MCF7 breast): 2.19 µM | TGI (MCF7 breast): 11.2 µM | GI50 (HS 578T breast): 6.43 µM | TGI (HS 578T breast): > 100 µM | GI50 (M14 melanoma): 2.62 µM | TGI (M14 melanoma): 10.6 µM | GI50 (MDA-MB-435): 3.39 µM | TGI (MDA-MB-435): 15.7 µM | GI50 (NCI-H460 lung): 3.01 µM | TGI (NCI-H460 lung): > 100 µM | GI50 (UACC-62 melanoma): 2.02 µM | TGI (UACC-62 melanoma): 6.55 µM | GI50 (HCT-116 colon): 1.76 µM | TGI (HCT-116 colon): 3.78 µM | GI50 (UACC-257 melanoma): 2.99 µM | TGI (UACC-257 melanoma): 16.6 µM | GI50 (SK-MEL-2 melanoma): 3.96 µM | TGI (SK-MEL-2 melanoma): 16.4 µM | GI50 (HCC-2998 colon): 2.78 µM | TGI (HCC-2998 colon): 10.3 µM | GI50 (SR leukemia): 1.41 µM | TGI (SR leukemia): 5.61 µM | GI50 (UO-31 renal): 2.94 µM | TGI (UO-31 renal): 11.9 µM | GI50 (MDA-MB-231 breast): 2.88 µM | TGI (MDA-MB-231 breast): 7.71 µM | GI50 (SK-MEL-5 melanoma): 3.06 µM | TGI (SK-MEL-5 melanoma): 12.3 µM | GI50 (SF-268 CNS): 3.33 µM | TGI (SF-268 CNS): 16.7 µM | GI50 (HL-60(TB) leukemia): 1.65 µM | TGI (HL-60(TB) leukemia): 6.46 µM | GI50 (OVCAR-4 ovarian): 4.13 µM | TGI (OVCAR-4 ovarian): 20.5 µM | GI50 (786-0 renal): 2.99 µM | TGI (786-0 renal): 10.5 µM | GI50 (NCI-H522 lung): 1.67 µM | TGI (NCI-H522 lung): 3.51 µM | GI50 (MDA-MB-468 breast): 1.47 µM | TGI (MDA-MB-468 breast): 4.12 µM | GI50 (NCI-H23 lung): 3.04 µM | TGI (NCI-H23 lung): 10.8 µM | GI50 (MALME-3M melanoma): 3.99 µM | TGI (MALME-3M melanoma): 16.4 µM | GI50 (CAKI-1 renal): 4.07 µM | TGI (CAKI-1 renal): 13.9 µM | GI50 (NCI-H226 lung): 3.23 µM | TGI (NCI-H226 lung): 12.3 µM | GI50 (HOP-62 NSCLC): 3.01 µM | TGI (HOP-62 NSCLC): 9.42 µM | GI50 (IGROV1 ovarian): 2.8 µM | TGI (IGROV1 ovarian): 10.4 µM | GI50 (SNB-19 CNS): 4.24 µM | TGI (SNB-19 CNS): 15.2 µM | GI50 (RPMI-8226 leukemia): 2.57 µM | TGI (RPMI-8226 leukemia): 8 µM | GI50 (NCI/ADR-RES ovarian): 2.83 µM | TGI (NCI/ADR-RES ovarian): 9.24 µM | GI50 (OVCAR-5 ovarian): 3.02 µM | TGI (OVCAR-5 ovarian): 11.1 µM | GI50 (KM12 colon): 2.59 µM | TGI (KM12 colon): 6.66 µM | GI50 (A549 NSCLC): 2.38 µM | TGI (A549 NSCLC): 10.1 µM | GI50 (LOX IMVI melanoma): 1.61 µM | TGI (LOX IMVI melanoma): 3.34 µM | GI50 (U251 CNS): 1.73 µM | TGI (U251 CNS): 3.69 µM | GI50 (PC-3 prostate): 4.67 µM | TGI (PC-3 prostate): 19.7 µM | GI50 (DU-145 prostate): 3.3 µM | TGI (DU-145 prostate): 12.5 µM | GI50 (HCT-15 colon): 1.35 µM | TGI (HCT-15 colon): 3.38 µM | GI50 (TK-10 renal): 3.53 µM | TGI (TK-10 renal): 9.79 µM | GI50 (SF-539 CNS): 2.01 µM | TGI (SF-539 CNS): 4.22 µM | GI50 (COLO 205 colon): 2.17 µM | TGI (COLO 205 colon): 3.95 µM | GI50 (EKVX NSCLC): 4.12 µM | TGI (EKVX NSCLC): 14.4 µM | GI50 (A498 renal): 15.9 µM | TGI (A498 renal): 32 µM | GI50 (SF-295 CNS): 3.1 µM | TGI (SF-295 CNS): 11 µM | GI50 (K-562 leukemia): 2.82 µM | TGI (K-562 leukemia): 14.2 µM | GI50 (BT-549 breast): 2.72 µM | TGI (BT-549 breast): 8.63 µM | GI50 (SW-620 colon): 3.61 µM | TGI (SW-620 colon): 20.7 µM | GI50 (OVCAR-3 ovarian): 2.53 µM | TGI (OVCAR-3 ovarian): 8.4 µM | GI50 (CCRF-CEM leukemia): 2.59 µM | TGI (CCRF-CEM leukemia): 6.78 µM | GI50 (SK-OV-3 ovarian): 5.36 µM | TGI (SK-OV-3 ovarian): 17.1 µM | GI50 (T-47D breast): 2.42 µM | TGI (T-47D breast): 9.53 µM | GI50 (SN12C renal): 2.59 µM | TGI (SN12C renal): 10.5 µM | GI50 (HT29 colon): 1.91 µM | TGI (HT29 colon): 3.81 µM | GI50 (RXF 393 renal): 1.74 µM | TGI (RXF 393 renal): 4.56 µM | GI50 (ACHN renal): 2.8 µM | TGI (ACHN renal): 8.33 µM | GI50 (MOLT-4 leukemia): 2.41 µM | TGI (MOLT-4 leukemia): 7.58 µM | GI50 (HOP-92 NSCLC): 3.58 µM | TGI (HOP-92 NSCLC): 15.3 µM
